From patent publication US11660303B2, “2-phenylimidazo[4,5-b]pyridin-7-amine derivates useful as inhibitors of mammalian tyrosine kinase ROR1 activity” (KANCERA AB, priority 2016, dated 2023)

Legend:
Type in all cases: cell-based
KE37 = assay: Flow cytometry Annexin V/PI apoptosis assay, KE37; conditions: Homo sapiens, KE-37, KE37, T-cell acute lymphoblastic leukemia (T-ALL), incubation 48 h
Protocol: (§1) Flow Cytometry Annexin V/PI Apoptosis Assay
(§2) An amount of 1 ml (10^5 cells/mL) of cells were seeded in each well of 6-well plates with and without compounds for 48 h. Cells were collected, washed with PBS, suspended in 100 μL of Annexin-V binding buffer (BD Biosciences) containing FITC-conjugated Annexin-V and PI (BD Biosciences) and incubated at room temperature in the dark for 20 min. After 20 min of incubation, 150 μL Annexin-V binding buffer was added. Viable cells were identified as the double negative Annexin-V and PI population. Samples were analyzed by a FACS Canto II Flow-cytometer (BD Biosciences).
(§3) Results, in terms of IC50 (μM), are shown in Table 4 for a representative compound of the invention, viz. Example 172.

H1417 = assay: Alamar Blue cell viability assay, H1417; conditions: Homo sapiens, NCI-H1417; H1417, Small cell lung cancer, alamarBlue, incubation 72 h
Protocol: (§4) Alamar Blue Cell Viability Assay
(§5) Cells were plated 12 hours prior to start of drug treatment, which lasted for 72 hours for all cytotoxicity experiments. Cell viability was estimated by alamarBlue™ Cell Viability Reagent (ThermoFisher, Waltham, Mass.) per manufacturer's instructions.
as §3

SupB15 [1] = assay: MTT cytotoxicity assay, SupB15; conditions: Homo sapiens, SUP-B15, SupB15, B-cell acute lymphoblastic leukemia (B-ALL), incubation 48 h
Protocol: (§6) The MTT assay (Sigma-Aldrich) was used to measure cytotoxic capability of the ROR1 tyrosine kinase inhibitors (ROR1-TKI). Briefly, 2×10^4 cancer cells were incubated in triplicates in 200 μL of RPMI-1640 containing 10% FCS in 96 well plates. ROR1-TKI (dissolved in DMSO), were added to the cells. Cells treated with DMSO were used as negative control. Cells were incubated for 48, 72 or 96 h. An amount of 20 μL MTT solution was added and the cell suspension was incubated for 4 h at 37 degrees C. The reaction was stopped by adding 100 μL MTT solvent (10% SDS in 0.01 M HCl) and was incubated for further 2-4 h. The plate was then read by a microplate reader at 570 nm.
as §3

SKOV3 = assay: MTT cytotoxicity assay, SKOV3; conditions: Homo sapiens, SK-OV-3, SKOV3, Ovarian cancer (OC), incubation 48 h
Protocol: as §6, §3

HDLM2 = assay: MTT cytotoxicity assay, HDLM2; conditions: Homo sapiens, HDLM-2, HDLM2, Hodgkin’s Lymphoma (HL), incubation 48 h
Protocol: as §6, §3

H187 = assay: Alamar Blue cell viability assay, H187; conditions: Homo sapiens, NCI-H187; H187, Small cell lung cancer, alamarBlue, incubation 72 h
Protocol: as §4, §5, §3

SEM cells [2] = assay: MTT cytotoxicity assay, SEM; conditions: B-cell acute lymphoblastic leukemia (B-ALL), incubation 48 h
Protocol: as §6, §3

H82 = assay: Alamar Blue cell viability assay, H82; conditions: Homo sapiens, NCI-H82; H82, Small cell lung cancer, alamarBlue, incubation 72 h
Protocol: as §4, §5, §3

H1299 = assay: MTT cytotoxicity assay, H1299; conditions: Homo sapiens, NCI-H1299, H1299, Non-small cell lung cancer, incubation 72 h
Protocol: as §6, §3

H69 = assay: Alamar Blue cell viability assay, H69; conditions: Homo sapiens, NCI-H69; H69, Small cell lung cancer (SCLC), alamarBlue, incubation 72 h
Protocol: as §4, §5, §3

SupB15 [3] = assay: Flow cytometry Annexin V/PI apoptosis assay, SupB15; conditions: Homo sapiens, SUP-B15, SupB15, B-cell acute lymphoblastic leukemia (B-ALL), incubation 48 h
Protocol: as §1, §2, §3

Z138 = assay: MTT cytotoxicity assay, Z138; conditions: Homo sapiens, Z-138, Z138, Mantle Cell Lymphoma (MCL), incubation 96 h
Protocol: as §6, §3

A2780 [4] = assay: MTT cytotoxicity assay, A2780; conditions: Homo sapiens, A2780, Ovarian cancer (OC), incubation 48 h
Protocol: as §6, §3

SUDHL4 = assay: MTT cytotoxicity assay, SUDHL4; conditions: Homo sapiens, SU-DHL-4, SUDHL4, Diffuse large B-cell lymphoma (DLBCL), incubation 48 h
Protocol: as §6, §3

MDA-MB-231 = assay: MTT cytotoxicity assay, MDA-MB-231; conditions: Homo sapiens, MDA-MB-231, Triple negative breast cancer, incubation 48 h
Protocol: as §6, §3

Kelly = assay: MTT cytotoxicity assay, Kelly; conditions: Neuroblastoma, incubation 48 h
Protocol: as §6, §3

232-B4 = assay: MTT cytotoxicity assay, 232-B4; conditions: 232-B4, CLL cell line, ExPASy Accession No: CVCL_Y436, MTT, incubation 48 h
Protocol: as §6, §3

A2780 [5] = assay: Flow cytometry Annexin V/PI apoptosis assay, A2780; conditions: Homo sapiens, A2780, Ovarian cancer (OC), incubation 48 h
Protocol: as §1, §2, §3

Caov3 = assay: Flow cytometry Annexin V/PI apoptosis assay, Caov3; conditions: Homo sapiens, Caov-3, Caov3, Ovarian cancer (OC), incubation 48 h
Protocol: as §1, §2, §3

MDA-V = assay: MTT cytotoxicity assay, MDA-V; conditions: Hodgkin’s Lymphoma (HL), incubation 48 h
Protocol: as §6, §3

A549 = assay: MTT cytotoxicity assay, A549; conditions: Homo sapiens, A549, Non-small cell lung cancer (NSCLC), incubation 72 h
Protocol: as §6, §3

HPB = assay: Flow cytometry Annexin V/PI apoptosis assay, HPB; conditions: T-cell acute lymphoblastic leukemia (T-ALL), incubation 48 h
Protocol: as §1, §2, §3

Granta-519 = assay: MTT cytotoxicity assay, Granta-519; conditions: Homo sapiens, Granta-519, Mantle Cell Lymphoma (MCL), incubation 96 h
Protocol: as §6, §3

OCI-LY3 = assay: MTT cytotoxicity assay, OCI-LY3; conditions: Homo sapiens, OCI-LY3, Diffuse large B-cell lymphoma (DLBCL), incubation 48 h
Protocol: as §6, §3

MS = assay: MTT cytotoxicity assay, MS; conditions: Diffuse large B-cell lymphoma (DLBCL), incubation 48 h
Protocol: as §6, §3

SEM cells [6] = assay: Flow cytometry Annexin V/PI apoptosis assay, SEM; conditions: B-cell acute lymphoblastic leukemia (B-ALL), incubation 48 h
Protocol: as §1, §2, §3

H1975 = assay: MTT cytotoxicity assay, H1975; conditions: Homo sapiens, NCI-H1975, H1975, Non-small cell lung cancer, incubation 72 h
Protocol: as §6, §3

AMO-1 = assay: MTT cytotoxicity assay, AMO-1; conditions: Homo sapiens, AMO1, AMO-1, Multiple Myeloma (MM), incubation 96 h
Protocol: as §6, §3

Structure (SMILES): CCOCCN1CCN(c2ccc(-c3nc4c(NC5CCN(CC)CC5)c(Br)cnc4[nH]3)cc2)CC1 [Example 172, 6-Bromo-2-{4-[4-(2-ethoxyethyl)piperazin-1-yl]phenyl}-N-(1-ethylpiperidin-4-yl)-3H-imidazo[4,5-b]pyridin-7-amine]
- IC50 (KE37): 180 nM
- IC50 (H1417): 540 nM
- IC50 (SupB15 [1]): 50 nM
- IC50 (SKOV3): 250 nM
- IC50 (HDLM2): 50 nM
- IC50 (H187): 230 nM
- IC50 (SEM cells [2]): 25 nM
- IC50 (H82): 410 nM
- IC50 (H1299): 250 nM
- IC50 (H69): 250 nM
- IC50 (SupB15 [3]): 66 nM
- IC50 (Z138): 250 nM
- IC50 (A2780 [4]): 100 nM
- IC50 (SUDHL4): 50 nM
- IC50 (MDA-MB-231): 150 nM
- IC50 (Kelly): 80 nM
- IC50 (232-B4): 200 nM
- IC50 (A2780 [5]): 270 nM
- IC50 (Caov3): 270 nM
- IC50 (MDA-V): 50 nM
- IC50 (A549): 100 nM
- IC50 (HPB): 140 nM
- IC50 (Granta-519): 250 nM
- IC50 (OCI-LY3): 50 nM
- IC50 (MS): 100 nM
- IC50 (SEM cells [6]): 31 nM
- IC50 (H1975): 250 nM
- IC50 (AMO-1): 50 nM
